From patent US6461587B1, “Perfluoroalkylamides, their production and their use in diagnosis” (Schering Aktiengesellschaft, priority 1999, dated 2002) come the findings set out here.

Series [1] is described as follows: Relaxivity of compounds according to the invention. It is filed as physicochemical. The following applies: 0.47 T and 37° C. From the text:
Relaxivity of Compounds According to the Invention

A short description of series [2]: Organ distribution of the contrast medium after s.c. administration. It is filed as in vivo. The following applies: guinea pigs, 10 μmol Gd/kg s.c., 7 days after administration. Here is the method:
After subcutaneous administration of 10 μmol of total gadolinium/kg of body weight in the hind paw of stimulated guinea pigs (complete Freund adjuvant; 0.1 ml i.m in the right and left lower leg in each case; 2 weeks before the test are administered), the retention of the metal in the […] as in the kidneys and spleen was examined 7 days administration.

Series [3] can be described thus: Retention of the opacifying metal at the injection site. It is filed as in vivo. The following applies: guinea pig, 10 μmol Gd/kg s.c. From the text:
After s.c. administration of 10 μmol of total gadolinium/kg of body weight in the guinea pig paw, the retention of metal at the injection site was studied at different times.

A short description of series [4]: Compatibility of compounds according to the invention (LD 50). The following applies: in vivo. The source says: Compatibility of Compounds According to the Invention
The nature of series [5]: Lymph node visualization (MRT) after interstitial administration of contrast medium. It is filed as in vivo. The following applies: guinea pigs, 10 μmol of Gd/kg s.c., 15 or 30 minutes, T1-weighted gradient echo images. Here is the method:
MR images of popliteal, inguinal and iliac lymph nodes both before (Precontrast) and 15 or 30 minutes after subcutaneous administration (guinea pigs, hind paw, interdigital space) of the substance of Example 5e or of Example 3c (in each case 10 μmol of Gd/kg of body weight) were taken.

The nature of series [6]: Blood level and pharmacokinetics after intravenous administration, in vivo comparison with Dy-DTPA. The following applies: rats, i.v. 100 μmol/kg; for Vd ss / α-t½ / β-t½: n=3; for blood concentrations compared with Dy-DTPA: all examination times 1-120 minutes p.i. On the procedure:
Three 350 g male (Schering-SPF) rats are used as test animals. 0.33-0.37 ml (in each case 100 mmol/L) of the following contrast medium solution is administered intravenously to each animal: mixture of 1 part each of a perfluoroalkyl-containing compound and the dysprosium-complex of (Dy-DTPA). The administered dose is in each case 100 μmol of Gd or Dy/kg of body weight. Via a catheter in the common carotid artery, blood samples are taken at the following times: 1, 3, 5, 10, 15, 20, 30, 45, 60, 90, 120 minutes p.i. In the blood samples that are obtained, in each case the concentrations of gadolinium (Gd) and dysprosium (Dy) are measured in parallel using atomic emission spectrometry (ICP-AES). The proportion of the injected compounds (Gd-containing perfluoroalkyl-containing compound and Dy-containing comparison substance) that remains in the blood space can be compared in the same animal by the different labeling. The α- and β-half life, the distribution volume and the total clearance can be calculated from the blood concentrations using special software (Topfit program). […]

[7] abbreviates: Table 2: plasma, mixture of 4c and Dy-DTPA.
The mark [8] stands for this setting: Table 1: plasma, mixture of 5e and Dy-DTPA.

Regarding “1,4,7-Tris(carboxylatomethyl)-10-{(3-aza-4-oxo-hexan-5-ylic)-acid- [N-4,7,10,17-tetraoxa-14-aza-17-oxo-C20-C28-hepta-decafluoro)-heptacosyl]-amide}-1,4,7,10-tetraazacyclododecane, gadolinium complex [Example 6b]”, in series [1], the “R1 in Plasma” value came out at 13.3 L/mmol/s and the “R1 in Water” value came out at 11.6 L/mmol/s. In series [2], the “Gadolinium Content in Kidneys” value is listed as 0.1% of dose, the “Gadolinium Content in Liver” value is 1.5% of dose and the “Gadolinium Content in Spleen” value is 0.0% of dose. Further, the “Gadolinium Content at the Injection Site (Paw)” value (shortened to “Gadolinium Content … (Paw)”) in series [3] (30 min. p.i.) is recorded as 66.4% of dose. Besides, in series [3] (90 min. p.i.), the “Gadolinium Content … (Paw)” value is 26.1% of dose. Besides, the “Gadolinium Content … (Paw)” value in series [3] (7 days p.i.) was 0.6% of dose.
In the case of `COCCN(CCOCCC(F)(F)C(F)(F)C(F)(F)C(F)(F)C(F)(F)C(F)(F)C(F)(F)C(F)(F)F)C(=O)CNC(=O)C(C)N1CCN(CC(=O)[O-])CCN(CC(=O)[O-])CCN(CC(=O)[O-])CC1.[Gd+3]` (stereo not shown) [Example 1c], in series [1], the “R1 in Plasma” value amounted to 25.7 L/mmol/s and the “R1 in Water” value turned out to be 13.8 L/mmol/s.
Consider `CC(C(=O)NCC(=O)N(CCOCCC(F)(F)C(F)(F)C(F)(F)C(F)(F)C(F)(F)C(F)(F)C(F)(F)C(F)(F)F)CC(O)CO)N1CCN(CC(=O)[O-])CCN(CC(=O)[O-])CCN(CC(=O)[O-])CC1.[Gd+3]` (stereo not shown) [Example 2c], for which the “LD 50” value in series [4] is on record as 3 mmol of Gd/kg of body weight. Further, in series [1], the “R1 in Plasma” value stood at 19.6 L/mmol/s and the “R1 in Water” value worked out at 11.8 L/mmol/s.
As to `CC(C(=O)NCC(=O)N(CCOCCO)CCOCCC(F)(F)C(F)(F)C(F)(F)C(F)(F)C(F)(F)C(F)(F)C(F)(F)C(F)(F)F)N1CCN(CC(=O)[O-])CCN(CC(=O)[O-])CCN(CC(=O)[O-])CC1.[Gd+3]` (stereo not shown) [Example 3c], in series [4], the “LD 50” value is 8 mmol of Gd/kg of body weight. For the same molecule, in series [1], the “R1 in Plasma” value worked out at 21.0 L/mmol/s and the “R1 in Water” value stood at 14.0 L/mmol/s. Also, in series [2], the “Gadolinium Content in Kidneys” value was 0.1% of dose, the “Gadolinium Content in Liver” value is 1.3% of dose and the “Gadolinium Content in Spleen” value is on record as 0.0% of dose. Moreover, the “Gadolinium Content … (Paw)” value in series [3] (30 min. p.i.) was 6.5% of dose. In addition, the “Gadolinium Content … (Paw)” value in series [3] (90 min. p.i.) was 4.9% of dose. Moreover, the “Gadolinium Content … (Paw)” value in series [3] (7 days p.i.) is on record as 1.7% of dose. In addition, the “MR signal in popliteal, inguinal and iliac lymph nodes of the injected body side vs non-injected side or precontrast” value in series [5] is on record as “strong signal increase”.
As for `CC(C(=O)NCC(=O)N(CCO)CCOCCC(F)(F)C(F)(F)C(F)(F)C(F)(F)C(F)(F)C(F)(F)C(F)(F)C(F)(F)F)N1CCN(CC(=O)[O-])CCN(CC(=O)[O-])CCN(CC(=O)[O-])CC1.[Gd+3]` (stereo not shown) [Example 4c], the “LD 50” value in series [4] is 0.3 mmol of Gd/kg of body weight. Besides, in series [1], the “R1 in Plasma” value came out at 21.9 L/mmol/s and the “R1 in Water” value is 14.4 L/mmol/s. Also, in series [6] (setting [7]), the Vd ss came to 0.12 ± 0.00 L/kg, the α-t½ was determined as 1.01 ± 0.32 min and the β-t½ is listed as 79.68 ± 12.26 min. For the same molecule, in series [6], the “distribution volume compared to Dy-DTPA” value is reported as “significantly smaller distribution volume” and the “blood concentrations compared with Dy-DTPA” value was “significantly higher blood concentrations”.
For the molecule `COCCOCCOCCOCCOCCN(CCOCCC(F)(F)C(F)(F)C(F)(F)C(F)(F)C(F)(F)C(F)(F)C(F)(F)C(F)(F)F)C(=O)CNC(=O)C(C)N1CCN(CC(=O)[O-])CCN(CC(=O)[O-])CCN(CC(=O)[O-])CC1.[Gd+3]` (stereo not shown) [Example 5e], in series [4], the “LD 50” value is reported as 15 mmol of Gd/kg of body weight. Further, in series [1], the “R1 in Plasma” value was 30.3 L/mmol/s and the “R1 in Water” value was determined as 12.4 L/mmol/s. Further, the “Gadolinium Content … (Paw)” value in series [3] (30 min. p.i.) is listed as 8.5% of dose. For the same molecule, in series [3] (90 min. p.i.), the “Gadolinium Content … (Paw)” value is listed as 9.4% of dose. The “MR signal in popliteal, inguinal and iliac lymph nodes of the injected body side vs non-injected side or precontrast” value in series [5] was “strong signal increase”. Besides, in series [6] (setting [8]), the Vd ss turned out to be 0.16 ± 0.03 L/kg, the α-t½ is 3.77 ± 0.75 min and the β-t½ came to 102.29 ± 24.48 min. Also, in series [6], the “distribution volume compared to Dy-DTPA” value is listed as “significantly smaller distribution volume” and the “blood concentrations compared with Dy-DTPA” value is “significantly higher blood concentrations”.
For `CC(C(=O)NCC(=O)NCCOCCC(F)(F)C(F)(F)C(F)(F)C(F)(F)C(F)(F)C(F)(F)C(F)(F)C(F)(F)F)N1CCN(CC(=O)[O-])CCN(CC(=O)[O-])CCN(CC(=O)[O-])CC1.[Gd+3]` (stereo not shown) [Example 7, 1,4,7-Tris(carboxylatomethyl)-10-[-(3-aza-4-oxo-hexan-5-ylic)-acid-N-(1H,1H,2H,2H,4H,4H,5H,5H-3-oxa-perfluorotridecyl)-amide]-1,4,7, 10-tetraaza-cyclododecane, gadolinium complex], in series [1], the “R1 in Plasma” value came out at 21.0 L/mmol/s and the “R1 in Water” value is 18.1 L/mmol/s. Besides, in series [2], the “Gadolinium Content in Kidneys” value was 0.2% of dose, the “Gadolinium Content in Liver” value is on record as 6.2% of dose and the “Gadolinium Content in Spleen” value was 0.0% of dose. Further, the “Gadolinium Content … (Paw)” value in series [3] (30 min. p.i.) is reported as 54.2% of dose. In addition, the “Gadolinium Content … (Paw)” value in series [3] (90 min. p.i.) is listed as 36.8% of dose. For the same molecule, the “Gadolinium Content … (Paw)” value in series [3] (7 days p.i.) is reported as 1.3% of dose.
Consider `CC(C(=O)NCC(=O)NCCNS(=O)(=O)C(F)(F)C(F)(F)C(F)(F)C(F)(F)C(F)(F)C(F)(F)C(F)(F)C(F)(F)F)N1CCN(CC(=O)[O-])CCN(CC(=O)[O-])CCN(CC(=O)[O-])CC1.[Gd+3]` (stereo not shown) [Example 10c, 1,4,7-Tris(carboxylatomethyl)-10-{(3-aza-4-oxo-hexan-5-ylic)-acid-N-[(2-perfluorooctylsulfonylamino)-ethyl]-amide}-1,4,7,10-tetraazacyclododecane, gadolinium complex], for which, in series [1], the “R1 in Plasma” value stood at 27.8 L/mmol/s and the “R1 in Water” value came out at 21.6 L/mmol/s.
On to Dy-DTPA [reference compound], for which, in series [6] (setting [8]), the Vd ss is 0.29 ± 0.09 L/kg, the α-t½ amounted to 2.19 ± 0.59 min and the β-t½ is recorded as 62.59 ± 37.47 min. In addition, in series [6] (setting [7]), the Vd ss stood at 0.15 ± 0.03 L/kg, the α-t½ is reported as 0.89 ± 0.32 min and the β-t½ amounted to 21.37 ± 2.18 min.
